Source: PMC6028453, “BrlR from Pseudomonas aeruginosa is a receptor for both cyclic di-GMP and pyocyanin” (Nature Communications, 2018)
Several values for one entry are separate records, joined by “and”; a condition that tells them apart may be missing. Equal entries are not always repeated.

Columns and labels:
BrlR Y249A DNA binding = biological target: T1, BrlR Y249A DNA binding (Pseudomonas aeruginosa, UniProt Q9HUT5, Y249A); test: EMSA, BrlR Y249A with PbrlR; format: biochemical
T1 construct: His6-SUMO (N, cleaved yes); made in house; host or cells: E. coli BL21 DE3
T1 sequence (Q9HUT5 whole entry Y249A): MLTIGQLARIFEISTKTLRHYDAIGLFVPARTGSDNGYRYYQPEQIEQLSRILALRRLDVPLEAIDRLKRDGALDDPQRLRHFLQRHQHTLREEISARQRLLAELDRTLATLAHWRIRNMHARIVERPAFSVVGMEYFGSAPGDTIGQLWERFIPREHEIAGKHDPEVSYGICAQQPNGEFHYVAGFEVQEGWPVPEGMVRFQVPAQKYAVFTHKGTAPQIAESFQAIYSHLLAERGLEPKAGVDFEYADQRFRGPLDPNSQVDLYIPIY
Description: (§1) It is unlikely that the larger drug molecules located in the canonical binding pocket can slide into the pyocyanin binding site and promote BrlR-DNA binding, as reflected by the EMSA results for tobramycin (Fig. 6a). To further verify the amino acid residues contributing to pyocyanin binding, many BrlR mutants were constructed. Whereas mutant E247A was insoluble, mutant F253R was not expressed, and mutant C173W was unstable. The binding affinity of Y183A and Y249A for pyocyanin were evaluated by using EMSA with a 36-bp PbrlR.
(§2) A 6-carboxy-fluorescein (FAM)-labeled 36-bp brlR promoter DNA (PbrlR) or 80-bp mexA/mexE promoter DNA (PmexA/PmexE) probes (~0.375 pmol), BrlR protein and varying amounts of inducers were incubated in binding buffer (10 mM Tris HCl [pH 7.4], 50 mM KCl, 1 mM DTT, […] and 5 ng/mL poly [dI-dC]) for 60 min at 25 °C. Finally, glycerol was added to a concentration of 6.5%. The samples were subjected to a 5% polyacrylamide gel electrophoresis and run in 0.5 × Tris-borate-EDTA buffer at 80 V for 1 h at room temperature. Imaging and data analyses were performed using a Typhoon Scanner (GE Healthcare) and Imagequant software. The probes used are listed in Supplementary Table 1.

brlR transcription = test: qRT-PCR of brlR transcript; format: cell-based, P. aeruginosa PAO1
Description: PAO1 WT strains were grown under different conditions. For c-di-GMP effects, overexpression of PA4843 in PAO1 (PAO1/pHERD20T-PA4843) relative to WT cells (PAO1/ pHERD20T) was determined. When P. aeruginosa strains entered mid-log phase, arabinose was added to induce gene expression. To test pyocyanin’s effect, a P. aeruginosa PAO1 WT strain cells with high pyocyanin production was determined relative to a ΔphzA1-G1/phzA2-G2 strain not producing phenazine and a ΔphzMSH strain not producing pyocyanin.
Total RNA was extracted using a MiniBEST Universal RNA Extraction Kit (TaKaRa) and cDNA synthesis was performed using a PrimeScript RT reagent Kit (TaKaRa). Primers for RT-PCR listed in Supplementary Table 1 were designed using the program PrimerExpress (Applied Biosystems). The RT-PCR reactions were performed on a CFX96 Real-Time PCR Detection System (Bio-Rad) using SYBR Premix Ex Taq™ (TaKaRa). Expression of the target genes was normalized to the expression of 16 S RNA. The relative transcript abundance was calculated according to the 2^−ΔΔCt method. Five biological replicates were performed per sample. The data were analyzed with a one-tailed t-test (***P ≤ 0.001).

brlR [1] = test system: brlR; parameters: method as in PMID 16879411; conditions: addition of pyocyanin to P. aeruginosa PA14 strain; cited from earlier work
[2] = biological target: T2, BrlR binding to PmexA and PmexE (Pseudomonas aeruginosa, UniProt Q9HUT5); test: EMSA, BrlR with PmexA and PmexE; format: biochemical; conditions: increasing concentrations of pyocyanin
T2 construct: His6-SUMO (N, cleaved yes); made in house; host or cells: E. coli BL21 DE3
T2 sequence (Q9HUT5 whole entry): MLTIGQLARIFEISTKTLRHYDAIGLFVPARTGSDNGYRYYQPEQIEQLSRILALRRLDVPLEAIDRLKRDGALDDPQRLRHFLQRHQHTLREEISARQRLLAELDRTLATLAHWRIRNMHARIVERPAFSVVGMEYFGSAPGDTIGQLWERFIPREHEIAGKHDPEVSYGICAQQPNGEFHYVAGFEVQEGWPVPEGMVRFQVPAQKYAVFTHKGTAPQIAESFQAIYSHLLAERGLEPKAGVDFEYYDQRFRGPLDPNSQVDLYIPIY
Description: as §2

BrlR Y183A DNA binding = biological target: T3, BrlR Y183A DNA binding (Pseudomonas aeruginosa, UniProt Q9HUT5, Y183A); test: EMSA, BrlR Y183A with PbrlR; format: biochemical
T3 construct: His6-SUMO (N, cleaved yes); made in house; host or cells: E. coli BL21 DE3
T3 sequence (Q9HUT5 whole entry Y183A): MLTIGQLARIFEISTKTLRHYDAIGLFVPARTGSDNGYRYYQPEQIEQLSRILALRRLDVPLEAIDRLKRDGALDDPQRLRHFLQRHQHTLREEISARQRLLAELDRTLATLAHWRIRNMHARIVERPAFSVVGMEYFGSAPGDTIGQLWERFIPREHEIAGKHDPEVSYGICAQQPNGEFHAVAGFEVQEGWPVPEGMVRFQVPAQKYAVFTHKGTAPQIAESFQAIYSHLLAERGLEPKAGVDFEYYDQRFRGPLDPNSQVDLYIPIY
Description: as §1, §2

BrlR-DNA binding (PbrlR) = biological target: T4, BrlR-DNA binding (PbrlR) (Pseudomonas aeruginosa, UniProt Q9HUT5); test: EMSA, wild-type BrlR with PbrlR DNA; format: biochemical
T4 construct: His6-SUMO (N, cleaved yes); made in house; host or cells: E. coli BL21 DE3
T4 sequence (Q9HUT5 whole entry): as the sequence (Q9HUT5 whole entry) above
Description: as §2

[3] = biological target: Per-Arnt-Sim (PAS) domain of PA14_07500 (RmcA); parameters: method as in earlier work; conditions: intrinsic fluorescence quenching method; ref 4 (Okegbe et al., 2017) of response letter; cited from earlier work
BrlR [4] = biological target: T5, BrlR (Pseudomonas aeruginosa, UniProt Q9HUT5); test: Surface plasmon resonance (SPR) analysis; format: binding
T5 construct: His6-SUMO (N, cleaved yes); made in house; host or cells: E. coli BL21 DE3
T5 sequence (Q9HUT5 whole entry): as above
Description: The binding affinity of diverse toxic compounds for BrlR were investigated by SPR using a BIAcore-T200 apparatus (GE Healthcare). The ligand, BrlR (20 μM in 10 mM sodium acetate, pH 4.5), was immobilized on an activated CM5 sensor chip by amine coupling (BIAcore) with 4400 response units (RU), and the unreacted sites were blocked with 1.0 M ethanolamine–HCl (pH 8.5). Steady-state binding analysis was performed with injections of different molecules at different concentrations over the immobilized BrlR surface at a flow rate of 20 μL min^−1 at 25 °C. Association was measured for 180 s, followed by 120 s of dissociation in running buffer (20 mM Hepes pH 7.5, 150 mM NaCl). The sensorgrams for specific interactions were obtained by subtracting the reference unimmobilized flow cell response from that of the sample. Since BrlR only has one binding site for pyocyanin or other toxic compounds (Fig. 5a–f), the kinetic analysis of the sensorgrams from analyte interaction with the immobilized BrlR was performed by fitting the binding curves to a 1:1 binding model. To determine the steady state KD values, equilibrium responses were plotted against analyte concentrations, and the resulting curves were fitted to the steady state model in the BIAevaluation software package, version 3.0 (GE Healthcare).

ΔbrlR cells = test: Planktonic antibiotic susceptibility testing, ΔbrlR; format: cell-based, Pseudomonas aeruginosa; conditions: 50 μg/ml tobramycin 1 h, 0.2 mM pyocyanin
Description: To determine the role of pyocyanin in antimicrobial susceptibility, P. aeruginosa strains (Supplementary Table 2) were grown at 37 °C in 20-fold diluted LB medium supplemented with or without 0.2 mM pyocyanin, which was purified from stationary phase cultures of PAO1. Tobramycin was added to the mid-log phase (OD600 = 0.8) cells suspension to a final concentration of 50 μg/ml; after 1 h, the broth was serially diluted and spread-printed onto LB agar (medium containing 300 μg/ml carbenicillin was used for the cells harboring plasmid) to determine the cell viability via CFU counts. The cell suspensions without tobramycin were set as controls. Susceptibility is expressed as a logarithmic reduction in CFU amount. The data were analyzed with a one-tailed t-test (***P ≤ 0.001).

Cn1c2cccc(=O)c-2nc2ccccc21 [pyocyanin, 5-N-methyl-1-hydroxyphenazine]
DNA bound in the presence vs absence of pyocyanin (BrlR Y249A DNA binding): 4.15 fold
brlR expression level, PAO1 vs ΔphzA1-G1/phzA2-G2 strain (brlR transcription; PAO1 at high pyocyanin production vs strain not producing phenazine): ~ 4.0 fold
brlR expression level, PAO1 vs ΔphzMSH strain (brlR transcription; PAO1 at high pyocyanin production vs strain with no pyocyanin production): ~ 5.3 fold
up-regulation of brlR (brlR [1]): 2.3 fold
effect on BrlR binding to PmexA and PmexE [2]: enhanced
DNA bound in the presence vs absence of pyocyanin (BrlR Y183A DNA binding): 3.23 fold
effect of c-di-GMP and pyocyanin together on BrlR-DNA binding (BrlR-DNA binding (PbrlR); PbrlR, c-di-GMP, pyocyanin, and both): cooperatively enhance
DNA bound in the presence vs absence of pyocyanin (BrlR-DNA binding (PbrlR); wild-type BrlR, PbrlR): 5.47 fold
effect on BrlR-PbrlR DNA binding (in words) (BrlR-DNA binding (PbrlR); wild-type BrlR, increasing concentrations of compound): significant increase
Kd [3]: 3 µM
binding affinity relative to tobramycin (BrlR [4]; SPR KD 4.5 μM vs 0.64 mM): ~ 140 fold
Kd (BrlR [4]; SPR, immobilized BrlR, steady state, 25 °C): 4.52 µM and 4.5 µM
viability of tobramycin-treated cells with vs without pyocyanin (ΔbrlR cells): no significant difference
